Assay [1] relates to primary human T-cells. Kind of assay: IL2 secretion measurements in CD3-stimulated T-cells. It is filed as cell-based. To be noted: Homo sapiens, T-cell, 24 h, CD3 condition; for Emax: IL2 after 24 hours, 20 μM reference compound A1 = 100%, read-out: Emax IL2 (% activation); for EC50: IL2 secretion after 24 hours, read-out: Tcell IL2 CD3 EC50. On the procedure: As readouts for T-cell activation, IL2 secretion after 24 hours and proliferation after 5 days was measured. Increases in IL2 secretion and proliferation upon compound treatment were assessed as the % of the maximum of reference compound A1. WO 2016/139181 discloses reference compound A1 as example 70. As a counter screen and to make sure that no unwanted TCR-independent activation was triggered, PBS conditions were run for all compounds.
Expanded primary human T-cells were thawed and cultured in RPMI 1640 (Gibco, #61870-010)+5% human serum (HS, Sigma, #H3667)+1 mM Sodium Pyruvate (Gibco, #11360-039)+50 μM 2-mercaptoethanol (Gibco, #31350-010) and 1× Pen-Strep (Life Technologies, #15140122) medium at density of 2 Mio/ml for 3 hours in 5% CO2, 37° C. and 95% humidity. For coating of plates, […] or PBS++ with CD3 antibody (concentration depending on donor and determined by CD3 titrations) was added 100 μl/well to Poly-D Lysine coated 96-well plates. Plates were sealed and incubated at room temperature for 3 hours on a table-top rocking platform. After incubation, plates were washed once with PBS−− and filled with 40 μl/well culture medium only. Compounds were then added (see next section) to medium only plates. After 3 hours of culturing the T-cells, cells were filtered through a cell strainer (Miltenyi Biotech, #130-041-407), counted again and concentration was adjusted to 1.25 Mio/ml.
Cells were then seeded 80 μl/well to the 40 μl/well including dispensed compounds according to plate layout. By adding cells, compounds were further diluted 1:3, and resulting in 100k cells/120 µl/well. After 24 hours 40 μl of supernatant was collected carefully from the top while not disturbing the cells and transferred into a round bottom 96 well plate. Collected and frozen supernatant was used for detection of IL2 using the IL-2 Human ProQuantum Immunoassay Kit (Invitrogen) or using the Human IL-2 ELISA Kit (Thermo Fisher).
(§1) Compound Treatment Compounds were added in a 5 or 6 pt dose response with the Tecan D300e Digital Dispenser, all conditions 3 times more concentrated than the end-concentration, since cells are added afterwards (80p1 cells to 40p1 prepared medium with treatment). The DR was starting at 20 μM or 10 μM final top concentration and a dilution factor of 3.333. The positive control was the reference compound A1 that was added in a dose response as well, additionally to 3 wells of only 20 μM representing the positive stimulator control. All wells were normalized with DMSO to a final concentration of 0.6% (0.2% end-concentration).
The immunoassay is done following the manufacturer's manual (Invitrogen, #A35603).
Additional information: For the immunoassay, MicroAmp™ EnduraPlate™ Optical 384-Well plates are used. Frozen supernatant is thawed and centrifuged for 5 minutes at 1000×g, both steps at 4° C. After centrifugation, required sample amount is taken from the top, and in a separate LightCycler V-bottom plate (working plate) diluted with assay dilution buffer, dilution factor depending on the PBS or CD3 condition but at least 1:3. IL-2 standard and blanks are prepared in the same V-bottom plate, standard with a range of 0.0128-5000 pg/ml (extended version). After preparation, 5 μl of sample dilutions or standard/blanks are transferred to the optical 384-well plate (assay plate) and the 10 μl reaction protocol is being followed. For measurement, the QuantStudio 12K Flex system is used. Raw data is extracted and IL-2 concentrations are calculated with the Thermo Fisher online app (apps.thermofisher.com/apps/proquantum).
ELISA is done following the manufacturer's manual (Thermo Fisher Scientific, #88-7025-88). Additional information: For the ELISA Nunc MaxiSorp 96 well plates are used. Frozen supernatant is thawed and centrifuged for 5 minutes at 1000×g, both steps at 4° C. […]

Assay [2] has as its system primary human T-cells. As to the kind of experiment: T-cell proliferation assay (CellTiter-Glo). It is filed as cell-based. The following applies: Homo sapiens, T-cell, 120 h, CD3 condition; for Emax: 5 days, 20 μM reference compound A1 = 100%, read-out: Emax proliferation (% activation); for EC50: proliferation after 5 days, CellTiter-Glo, read-out: Tcell Proliferation CD3 EC50. Here is the method: Expanded primary human T-cells are thawed and cultured in RPMI 1640 (Gibco, #61870-010)+5% human serum (HS, Sigma, #H3667)+1 mM Sodium Pyruvate (Gibco, #11360-039)+50 μM 2-mercaptoethanol (Gibco, #31350-010) and 1× Pen-Strep (Life Technologies, #15140122) medium at density of 2 Mio/ml for 3 hours in 5% CO2, 37° C. and 95% humidity. For coating of plates, PBS++ only or PBS++ with CD3 antibody (concentration depending on donor and determined by CD3 titrations) is added 100 μl/well to Poly-D Lysine coated 96-well plates. Plates are sealed and incubated at room temperature for 3 hours on a table-top rocking platform. After incubation, plates are washed once with PBS−− and filled with 40 μl/well culture medium only. Compounds are then added (see next section) to medium only plates. After 3 hours of culturing the T-cells, cells are filtered through a cell strainer (Miltenyi Biotech, #130-041-407), counted again and concentration is adjusted to 1.25 Mio/ml.
Cells are then seeded 80 μl/well to the 40 µl/well including dispensed compounds according to plate layout. By adding cells, compounds are further diluted 1:3, and resulting in 100k cells/120 µl/well. After 48 hours 40 μl of supernatant is collected carefully from the top while not disturbing the cells. Cells are assessed for proliferation 5 days later by measuring […] using CellTiterGlo (Promega).
as §1, with “Compounds” for “Compound Treatment Compounds”
After 5 days, for detection of ATP which is directly proportional to the number of cells present per well, the CellTiter-Glo® 2.0 Reagent is used. After visual control for toxicity or precipitations of the tested compounds, the plates are equilibrated to room temperature for 45 minutes. CellTiter-Glo® 2.0 Reagent is equilibrated to room temperature as well. After equilibration, an equal amount of CellTiter-Glo reagent is added to the cells (80 µl/well) with an electronic multichannel pipette. Plates are placed on a rocking platform for 15 minutes at room temperature. After incubation, the bottom of the plates is sealed with backing tape. Luminescence is measured with PHERAstar FSX (interval time 0.5 sec, gain 3000, focal height 15 mm) and exported as CSV file for analysis in Genedata screener.
Calculations and Data Reporting CD3 and PBS plates were analysed separately in Genedata Screener using Roche Normalization PCT_POS_CTRL with DMSO set as Neutral Control and 20 μM of the reference compound A1 set as Stimulator Control/100%.
For CD3 conditions EC50 and Emax of the fitted sigmoidal curve were reported. If no curve could be fitted, the EC50 was reported as blank field and the Emax was based on individual data points. […] Compounds which activate unstimulated cells (see IL2 measurements) or compounds which negatively affected viability were flagged.

A further assay has as its target DGKalpha (Homo sapiens, UniProt P23743). Kind of assay: In vitro DGK inhibition assay (ADP-Glo, liposomes), DGKalpha. It is filed as biochemical. The arrangement: hDGKalpha(1-735)-N-His; His (N); made in house; host or cells: Sf21 insect cells (baculovirus). To be noted: 4 nM DGK α, 25 μM ATP, 125 uM DLG in liposomes, 1 hour reaction. On the procedure: (§2) DGK α and ζ kinases use ATP to phosphorylate the substrate 1,2-dilauroyl-sn-glycerol (DLG, incorporated in the liposomes). ATP is converted to ADP as a result of this enzymatic reaction. After the kinase reaction, an ATP-depletion reagent is added to terminate the kinase reaction and deplete any remaining ATP, leaving only ADP. Second, a detection reagent is added to simultaneously convert ADP to ATP and allow the newly synthesized ATP to be converted to light using a coupled luciferase/luciferin reaction.
Full length DGKA and Z were expressed in Sf21 insect cells by infecting the cells with the baculovirus stock at MOI of 2. Purification of both enzymes was performed as previously described by Takahashi et al., PeerJ, 2018 (Takahashi, D.; Sakane, F. Expression and purification of human diacylglycerol kinase alpha from baculovirus-infected insect cells for structural studies. PeerJ 2018, 6, No. e5449).
(§3) A concentrated liposome solution was prepared in assay buffer without DTT and BSA: 2 mM of DLG in 21 mM of total liposome (2 mM DLG/8 mM PS/11 mM PC). The reaction mixtures contain the assay buffer with a final DLG concentration of 125 uM ATP concentrations of 25 μM (for DGKA assay) or 50 μM (for DGKZ assay). The reactions were started by addition of DGK a and (kinases at 4 nM and 2 nM final concentrations, respectively. After 1 hour reaction, the amount of ADP formed was detected with the ADP-Glo kinase assay (Promega) according to the manufacturer instructions. Compounds were added in 11-points dose response, starting at […], 1:3 dilutions, with a final DMSO concentration of 2%. The multidrop combi was used as a liquid handler and luminescence was read with 0.5 s by the envision reader (PE).

Another assay addresses DGKzeta (Homo sapiens, UniProt Q13574). As to the kind of experiment: In vitro DGK inhibition assay (ADP-Glo, liposomes), DGKzeta. The assay is classed as biochemical. To be noted: 2 nM DGK ζ, 50 μM ATP, 125 uM DLG in liposomes, 1 hour reaction. On the set-up: hDGKzeta(1-928)-N-His; His (N); made in house; host or cells: Sf21 insect cells (baculovirus). On the procedure: as §2
Purification of both enzymes was performed as previously described by Takahashi et al., PeerJ, 2018 (Takahashi, D.; Sakane, F. Expression and purification of human diacylglycerol kinase alpha from baculovirus-infected insect cells for structural studies. PeerJ 2018, 6, No. e5449).
as §3

Structures are written as SMILES.

Broadly, the IC50 is the concentration that gives 50% inhibition.

DGKzeta, sequence (Q13574 whole entry): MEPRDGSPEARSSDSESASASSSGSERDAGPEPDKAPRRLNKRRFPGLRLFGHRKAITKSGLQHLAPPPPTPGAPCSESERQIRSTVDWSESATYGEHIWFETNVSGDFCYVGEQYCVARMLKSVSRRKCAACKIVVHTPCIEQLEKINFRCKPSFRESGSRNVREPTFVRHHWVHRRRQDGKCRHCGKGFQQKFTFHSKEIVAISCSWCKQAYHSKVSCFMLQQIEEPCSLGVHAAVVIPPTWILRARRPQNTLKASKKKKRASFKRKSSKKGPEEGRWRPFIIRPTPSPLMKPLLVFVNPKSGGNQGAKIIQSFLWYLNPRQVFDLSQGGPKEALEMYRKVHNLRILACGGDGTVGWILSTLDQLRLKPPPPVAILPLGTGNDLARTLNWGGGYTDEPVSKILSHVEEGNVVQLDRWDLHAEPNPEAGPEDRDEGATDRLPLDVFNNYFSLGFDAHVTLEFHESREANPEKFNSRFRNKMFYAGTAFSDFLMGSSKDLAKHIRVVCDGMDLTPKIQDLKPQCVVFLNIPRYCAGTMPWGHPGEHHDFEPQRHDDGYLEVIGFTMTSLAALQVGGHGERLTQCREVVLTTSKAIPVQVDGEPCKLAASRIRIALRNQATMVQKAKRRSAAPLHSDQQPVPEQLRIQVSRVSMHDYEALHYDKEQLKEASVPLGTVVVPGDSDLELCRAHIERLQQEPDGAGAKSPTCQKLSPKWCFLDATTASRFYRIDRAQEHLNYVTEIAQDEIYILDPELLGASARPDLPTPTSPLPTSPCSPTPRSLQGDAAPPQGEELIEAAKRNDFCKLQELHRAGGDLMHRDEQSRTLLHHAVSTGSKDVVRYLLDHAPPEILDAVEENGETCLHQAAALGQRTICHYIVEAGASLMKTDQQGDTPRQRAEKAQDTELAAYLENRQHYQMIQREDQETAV
DGKalpha, sequence (P23743 whole entry): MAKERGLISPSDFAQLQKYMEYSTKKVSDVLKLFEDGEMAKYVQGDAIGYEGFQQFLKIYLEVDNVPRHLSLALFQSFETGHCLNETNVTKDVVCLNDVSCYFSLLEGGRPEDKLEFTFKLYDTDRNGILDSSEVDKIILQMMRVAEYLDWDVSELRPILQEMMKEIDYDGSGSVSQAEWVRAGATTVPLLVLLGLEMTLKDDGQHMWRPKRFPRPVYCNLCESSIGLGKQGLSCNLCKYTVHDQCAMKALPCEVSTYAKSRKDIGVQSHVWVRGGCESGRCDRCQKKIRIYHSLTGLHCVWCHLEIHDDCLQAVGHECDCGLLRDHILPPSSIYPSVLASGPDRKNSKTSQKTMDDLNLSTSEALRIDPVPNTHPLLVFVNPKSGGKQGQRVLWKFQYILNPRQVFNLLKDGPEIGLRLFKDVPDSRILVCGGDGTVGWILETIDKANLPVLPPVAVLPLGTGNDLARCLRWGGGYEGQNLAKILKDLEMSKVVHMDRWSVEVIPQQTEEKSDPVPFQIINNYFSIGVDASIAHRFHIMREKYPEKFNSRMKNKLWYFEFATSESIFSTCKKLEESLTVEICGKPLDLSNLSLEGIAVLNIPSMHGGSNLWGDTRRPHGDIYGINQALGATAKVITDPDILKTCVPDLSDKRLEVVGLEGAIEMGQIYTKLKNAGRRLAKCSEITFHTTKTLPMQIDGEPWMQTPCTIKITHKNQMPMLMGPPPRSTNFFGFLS

Consider `CC(C)(c1nnc(-c2ccc3c(c2)N(Cc2ccc(OCc4cccc(F)c4)cc2)C(=O)[C@@H](N)CS3(=O)=O)o1)S(C)(=O)=O` [Example 13, (3R)-3-amino-5-[[4-[(3-fluorophenyl)methoxy]phenyl]methyl]-7-[5-(1-methyl-1-methylsulfonyl-ethyl)-1,3,4-oxadiazol-2-yl]-1,1-dioxo-2,3-dihydro-1λ6,5-benzothiazepin-4-one], for which, in the assay with primary human T-cells [1], the Emax came out at 181% and the EC50 was determined as 1.3 µM. For the same molecule, in the assay on primary human T-cells [2], the Emax came to 92% and the EC50 amounted to 1.14 µM.

For `CC(C)N(C)c1ccc(CN2C(=O)[C@@H](N)CS(=O)(=O)c3ccc(-c4nnc(C(C)(C)S(C)(=O)=O)o4)cc32)cc1` [Example 18, (3R)-3-amino-5-[[4-[isopropyl(methyl)amino]phenyl]methyl]-7-[5-(1-methyl-1-methylsulfonyl-ethyl)-1,3,4-oxadiazol-2-yl]-1,1-dioxo-2,3-dihydro-126,5-benzothiazepin-4-one], the Emax in the assay on primary human T-cells [1] came to 46%; with primary human T-cells [2] it was 63%. Besides, the EC50 in the assay with primary human T-cells [1] was more than 10 µM; with primary human T-cells [2] it was 6.35 µM.

As to `CC(C)(c1nnc(-c2cc3c(cc2F)S(=O)(=O)C[C@H](N)C(=O)N3Cc2ccc(-c3noc(C(F)(F)F)n3)cc2)o1)S(C)(=O)=O` [Example 28, (3R)-3-amino-8-fluoro-7-[5-(1-methyl-1-methylsulfonyl-ethyl)-1,3,4-oxadiazol-2-yl]-1,1-dioxo-5-[[4-[5-(trifluoromethyl)-1,2,4-oxadiazol-3-yl]phenyl]methyl]-2,3-dihydro-1λ6,5-benzothiazepin-4-one], it took 1.16 µM to reach half-maximal inhibition on DGKalpha (IC50). In addition, in the assay on primary human T-cells [1], the Emax turned out to be 307% and the EC50 is 0.185 µM. In addition, on DGKzeta, 0.573 µM corresponded to half-maximal inhibition (IC50).

As to `CC(C)(c1nnc(-c2ccc3c(c2)N(Cc2ccc(COc4ccccc4)cc2)C(=O)[C@@H](N)CS3(=O)=O)o1)S(C)(=O)=O` [Example 8, (3R)-3-amino-7-[5-(1-methyl-1-methylsulfonyl-ethyl)-1,3,4-oxadiazol-2-yl]-1,1-dioxo-5-[[4-(phenoxymethyl)phenyl]methyl]-2,3-dihydro-1λ6,5-benzothiazepin-4-one], the Emax in the assay on primary human T-cells [1] was found to be 177%; with primary human T-cells [2] it was 174%.

In the case of `CC(C)(c1nnc(-c2cc3c(cc2F)S(=O)(=O)C[C@H](N)C(=O)N3Cc2ccc(-c3ccc(C(F)(F)F)cn3)cc2)o1)S(C)(=O)=O` [Example 25, (3R)-3-amino-8-fluoro-7-[5-(1-methyl-1-methylsulfonyl-ethyl)-1,3,4-oxadiazol-2-yl]-1,1-dioxo-5-[[4-[5-(trifluoromethyl)-2-pyridyl]phenyl]methyl]-2,3-dihydro-1λ6,5-benzothiazepin-4-one], in the assay with primary human T-cells [1], the Emax was found to be 244% and the EC50 amounted to 0.566 µM.

The record behind these values is US20260035364A1, “BICYCLIC TETRAHYDROTHIAZEPINE DERIVATIVES” (Hoffmann-La Roche Inc., priority 2022, published 2026).
